From patent publication US12528837B2, “Aryl substituted polymyxin derivatives” (priority 2018, dated 2026)
In brackets after ≈: the same amount, converted by molar mass. Read-outs that look alike come from different tables or passages of the source. Marks after values point to notes of the source that are not given here. Where a SMILES comes first, the peptide text is derived from it. Bridges are numbered along the chain shown (N, C = ends). [ ]: non-standard residue; d: D form. The star is where a group is joined. X17 = CC(C)C[C@@H]1CNC[C@@H](C(=O)*)C1; X1 = NC[C@@H](CC(=O)*)c1cccc(Cl)c1; Dab = NCC[C@H](N)C(=O)O; Dap = NC[C@H](N)C(=O)O

How the values were obtained:
[1] = test system: HK-2 cells; assay: In vitro renal cell toxicity assay (HK-2); format: cell-based
Outline: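 HK-2 cells seeded 7,500/well, adhered overnight, then exposed to compound for 24 h at 37° C, 5% CO2, with 5% water and 0.5% DMSO. Background-subtracted, vehicle-normalised dose-response fitted with bottom fixed at zero; IC50 reported relative to PMB in the same run, median where repeated.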

[2] = Kidney drug level after subcutaneous dose in mouse; format: in vivo; conditions: for Drug Level in Kidney 4 h / Drug Level in Kidney 16 h: in vivo, sc, 17.2 mg/kg
Outline: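 Mice were euthanised four hours after subcutaneous dosing. Both kidneys were trimmed, weighed, snap-frozen, then homogenised with zirconium oxide beads. After centrifugation (13,000 rpm, 6 °C, 10 min), supernatants were analysed by LC-MS-MS.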

[3] = test system: E. coli CA58; format: cell-based; conditions: CA58
Outline: (§1)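 MIC (μg/mL), duplicate runs; median value where a compound was tested repeatedly. Inoculum: colonies from 18-24 h Mueller-Hinton agar, suspended directly to 0.5 McFarland.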

[4] = test system: K. pneumoniae CA64; format: cell-based; conditions: CA64
Outline: as §1

[5] = test system: P. aeruginosa CCUG 59347; format: cell-based; conditions: CCUG 59347
Outline: as §1

[6] = test system: A. baumannii NCTC 13424; format: cell-based; conditions: NCTC 13424
Procedure: (§2) The inoculum was prepared by making a direct suspension of isolated colonies (selected from an 18-24 hour Mueller-Hinton agar plate) adjusted to the 0.5 McFarland standard. […] The assays were performed in duplicate. […] The MIC values are quoted in μg/mL.

[7] = test system: P. aeruginosa ATCC 27853; format: cell-based; conditions: ATCC 27853
Procedure: as §2

[8] = Renal toxicity in mice, 17.2 mg/kg sc three times per day, urinary biomarkers; format: in vivo, mouse; conditions: albumin, cystatin C, KIM-1; mice 17.2 mg free base/kg three times per day
Procedure: Starting immediately after the first dose on day 4, mice were transferred to individual metabolic cages and urine was collected over the following 24 hours for determination of biomarker levels (albumin, cystatin C, KIM-1).
PMB values show the range from 4 experiments and colistin from 2 experiments.
Elevation of albumin, cystatin C or KIM-1 in the urine are signs of renal damage.

[9] = Renal toxicity in mice, 25 mg/kg sc four doses at 8 hr intervals, biomarkers and histopathology; format: in vivo, mouse; conditions: mice (n=6), sc 25 mg free base/kg
Procedure: After the fourth dose animals were transferred into individual metabolic cages and urine collected for 24 hours for determination of urinary biomarkers. After collecting urine mice were euthanised and the kidneys harvested for histopathology.

[10] = Renal toxicity in Cynomolgus monkey, iv infusion 7 days; format: in vivo; conditions: Cynomolgus monkey (n=3), 20 mg/kg/dose, 3 times per day, 7 days
Procedure: In a separate experiment male monkeys (n=3) were dosed with PMB for the same period at 4 mg/kg/dose. In both experiments control animals were dosed 3 times per day with saline.
At the end of the 7 day period blood was sampled and the serum levels of blood urea nitrogen and creatinine determined as indicators of renal damage.
Kidneys were harvested at the end of the 7 day dosing period and examined microscopically.

[11] = test system: A. baumannii IHMA 517303; format: cell-based; conditions: IHMA 517303
Procedure: (§3) MIC values (μg/mL) were determined by broth microdilution under CLSI conditions.

[12] = test system: A. baumannii IHMA 851735 (OXA-23); format: cell-based; conditions: IHMA 851735 (OXA-23)
Procedure: as §3

[13] = test system: A. baumannii NCTC 13301 (OXA-23); format: cell-based; conditions: NCTC 13301
Procedure: as §3

[14] = test system: E. coli CDF-1 (MCR-1); format: cell-based; conditions: CDF-1 (MCR-1)
Procedure: as §3

[15] = test system: E. coli IHMA 940398; format: cell-based; conditions: IHMA 940398
Procedure: as §3

[16] = test system: K. pneumoniae IHMA 520329 (SHV-12, KPC-2); format: cell-based; conditions: IHMA 520329 (SHV-12, KPC-2)
Procedure: as §3

[17] = test system: K. pneumoniae IHMA 580884; format: cell-based; conditions: IHMA 580884
Procedure: as §3

[18] = test system: P. aeruginosa ATCC 27853; format: cell-based; conditions: ATCC 27853; remark: listed apart in the source
Procedure: as §3

[19] = test system: P. aeruginosa IHMA 517175; format: cell-based; conditions: IHMA 517175
Procedure: as §3

[20] = test system: P. aeruginosa IHMA 644636; format: cell-based; conditions: IHMA 644636
Procedure: as §3

[21] = Renal toxicity grading by urinary biomarkers (Table A); format: in vivo, mouse; design: key: −: indistinguishable to vehicle control; ++++: strong response from all biomarkers; conditions: 4 doses 8 h apart at 25 mg free base/kg/dose or 4 days at 17.2 mg free base/kg/dose; urine 16-24 h

Structure (SMILES): CC(C)C[C@@H]1NC(=O)[C@@H](Cc2ccccc2)NC(=O)[C@H](CCN)NC(=O)[C@@H](NC(=O)[C@H](CN)NC(=O)[C@@H](NC(=O)C[C@H](CN)c2cccc(Cl)c2)[C@@H](C)O)CCNC(=O)[C@H]([C@@H](C)O)NC(=O)[C@H](CCN)NC(=O)[C@H](CCN)NC1=O [Example 5, (S)-4-amino-3-(3- chlorophenyl)butanoyl- Thr-Dap-Cyclo[Dab- Dab-DPhe-Leu-Dab- Dab-Thr]] (X1-T[Dap][Dab][Dab][dF]L[Dab][Dab]T; lactam 3-C)
- HK-2 rel to PMB [1]: 11.6
- Drug Level in Kidney (μg/g kidney, 4 h) ([2]; mouse, 17.2 mg/kg sc, 4 h): 170 μg/g kidney
- Drug Level in Kidney 4 h ([2]; mouse): 170 µg/g kidney
- Drug Level in Kidney 16 h ([2]; mouse): 19 µg/g kidney
- 4 hr kidney level/rel. cytotoxicity ([2]; ratio of 4 h kidney level to HK-2 IC50 relative to PMB): 15
- MIC E. coli CA58 [3]: 8 µg/mL (≈ 6.99 µM)
- MIC K. pneumoniae CA64 [4]: 16 µg/mL (≈ 14 µM)
- MIC P. aeruginosa CCUG 59347 [5]: 0.25 µg/mL (≈ 0.218 µM)
- MIC A. baumannii NCTC 13424 [6]: 0.06 µg/mL (≈ 0.0524 µM)
- MIC P. aeruginosa ATCC 27853 [7]: 0.25 µg/mL (≈ 0.218 µM)
- Urinary biomarkers of renal toxicity, comparison (in words) [8]: lowest levels of all 3 biomarkers
- Kidney histopathology: signs of degeneration or regeneration [9]: None of the animals
- Kidney microscopy: tubular degeneration [10]: 1 showed mild tubular degeneration and 2 showed minimal degeneration
- MIC A. baumannii IHMA 517303 [11]: >64 µg/mL
- MIC A. baumannii IHMA 851735 [12]: 0.25 µg/mL (≈ 0.218 µM)
- MIC A. baumannii NCTC 13301 [13]: 0.06 µg/mL (≈ 0.0524 µM)
- MIC E. coli CDF-1 [14]: 8 µg/mL (≈ 6.99 µM)
- MIC E. coli IHMA 940398 [15]: 32 µg/mL (≈ 28 µM)
- MIC K. pneumoniae IHMA 520329 [16]: >64 µg/mL
- MIC K. pneumoniae IHMA 580884 [17]: 16 µg/mL (≈ 14 µM)
- MIC P. aeruginosa ATCC 27853 [18]: 0.25 µg/mL (≈ 0.218 µM)
- MIC P. aeruginosa IHMA 517175 [19]: 8 µg/mL (≈ 6.99 µM)
- MIC P. aeruginosa IHMA 644636 [20]: 32 µg/mL (≈ 28 µM)

Structure (SMILES): CC(C)C[C@@H]1CNC[C@@H](C(=O)N[C@H](C(=O)N[C@@H](CN)C(=O)N[C@H]2CCNC(=O)[C@H]([C@@H](C)O)NC(=O)[C@H](CCN)NC(=O)[C@H](CCN)NC(=O)[C@H](CC(C)C)NC(=O)[C@@H](CC(C)C)NC(=O)[C@H](CCN)NC2=O)[C@@H](C)O)C1 [Reference Example D77, reference compound] (X17-T[Dap][Dab][Dab][dL]L[Dab][Dab]T; lactam 3-C)
- Cytotoxicity (measured IC50 relative to that recorded for Polymyxin B) [1]: 23**
- Drug Level in Kidney 4 h ([2]; mouse): 516 µg/g kidney
- Drug Level in Kidney 16 h ([2]; mouse): 264 µg/g kidney
- Renal toxicity (grade from urinary KIM-1, albumin, cystatin C) [21]: ++++
